Drawing on article PMC4450806, “The cytochrome bd-type quinol oxidase is important for survival of Mycobacterium smegmatis under peroxide and antibiotic-induced stress” (Scientific Reports, 2015), this text covers IC50 for one compound.

The assay addresses T1, cytochrome bd-type quinol oxidase (cytochrome bd) (Mycolicibacterium smegmatis, UniProt A0QXA8).
T1 construct: gene MSMEG_3233; native enzyme in inverted membrane vesicles of the ΔqcrCAB :: hyg strain (cytochrome bd as the only respiratory branch); with CydB (cytochrome bd subunit)
The assay is described as follows: NADH-driven oxygen consumption of inverted membrane vesicles (Clark-type electrode), wild-type versus bc1-knockout strain. It is filed as biochemical.

Each structure is given as a SMILES string.

Turning to `CC(C)=CCC/C(C)=C/CC/C(C)=C/Cc1c(C)[nH]c2ccccc2c1=O` [aurachin D], the IC50 (usually the concentration at which inhibition is half-maximal) was roughly 400 nM.
